Results as given in US7906502B2, “2-azetidinone derivatives as cholesterol absorption inhibitors for the treatment of hyperlipidaemic conditions” (AstraZeneca AB, priority 2005, dated 2011).

How the values were obtained:
[1] = Absorption in a Caco-2 cells model; assay type: in vitro ADME; conditions: human
Experimental: Absorption of the compounds of formula (I) was tested in a Caco-2 cells model (Gastroenterology 1989, 96, 736): […]

[2] = system: 14C-cholesterol absorption; assay: In vivo testing of cholesterol absorption inhibitors (A); set-up: species or system C57BL/6 female mice; conditions: 0.2 μmol/kg, gavage, procedure A, mice
Experimental: In vivo Testing of Cholesterol Absorption Inhibitors (A)
C57BL/6 female mice were maintained on regular chow diet and housed in individual cages to collect faeces. Mice were fasted for 3 hours and then gavaged with vehicle or compound. Half an hour later the mice were gavaged with radiolabelled cholesterol. Six hours after the ^14C-cholesterol gavage blood samples were taken via the tail and plasma prepared to determine how much cholesterol were absorbed. 24 hours after the gavage of ^14C-cholesterol the mice were bled and plasma were prepared for analysis. Faeces were collected for 24 hours to assess absorption efficiency.

| Papp [1] | SMILES | inhibition of 14C-cholesterol absorption [2] |
| --- | --- | --- |
| 0.05 ×10⁻⁶ cm/s | O=C(COc1ccc([C@@H]2[C@@H](SCC(O)c3ccc4c(c3)OCO4)C(=O)N2c2ccc(F)cc2)cc1)NCC(=O)N[C@H](CC1CCCCC1)C(=O)O (single isomer, unassigned) [Example 13, N-({4-[(2R,3R)-3-{[(2R or S)-2-(1,3-benzodioxol-5-yl)-2-hydroxyethyl]thio}-1-(4-fluorophenyl)-4-oxoazetidin-2-yl]phenoxy}acetyl)glycyl-3-cyclohexyl-D-alanine] |  |
|  | CC(C)(C)[C@@H](NC(=O)CNC(=O)COc1ccc([C@@H]2[C@@H](SCC(O)c3ccc4c(c3)OCO4)C(=O)N2c2ccc(F)cc2)cc1)C(=O)O (stereo partly drawn) [Example 3, N-({4-[(2R,3R)-3-{[2-(1,3-Benzodioxol-5-yl)-2-hydroxyethyl]thio}-1-(4-fluorophenyl)-4-oxoazetidin-2-yl]phenoxy}acetyl)glycyl-3-methyl-D-valine] | 67% |
| 0.02 ×10⁻⁶ cm/s | CC(C)(C)[C@@H](NC(=O)CNC(=O)COc1ccc([C@@H]2[C@@H](SCC(O)c3ccc4c(c3)OCCO4)C(=O)N2c2ccc(F)cc2)cc1)C(=O)O (stereo partly drawn) [Example 1, N-({4-[(2R,3R)-3-{[2-(2,3-dihydro-1,4-benzodioxin-6-yl)-2-hydroxyethyl]thio}-1-(4-fluorophenyl)-4-oxoazetidin-2-yl]phenoxy}acetyl)glycyl-3-methyl-D-valine] | 61% |
